This is an account of results in PMC5457702 (Molecular cancer therapeutics, 2017).

The target in assay [1] is T1, BRD4-1 (Homo sapiens, UniProt O60885). Kind of assay: Differential scanning fluorimetry. The class given is binding. Particulars: 100 μM inhibitor, 4 μM BRD4-1; mean of 3 experiments in quadruplicate.
Assay [2] concerns MM1.S cells. Description: Cell viability. The class given is cell-based, human. Particulars: read-out: Cell growth inhibition IC50, MM1.S, 72 h.
In assay [3] the test system is UKE-1 cells. Description: Cell viability. The class given is cell-based, human. Particulars: read-out: Cell growth inhibition IC50, UKE-1.
A further assay relates to SAOS2 cells. Description: Cell viability. The format is cell-based, human. Particulars: for IC50: read-out: Cell growth inhibition IC50, SAOS2.
Another assay has as its system HCC-78 cells. Kind of assay: Cell viability. The format is cell-based, human. Particulars: for IC50: read-out: Cell growth inhibition IC50, HCC78.
The subject of assay [4] is MM1.S cells. Kind of assay: Flow cytometry cell cycle analysis, MM1.S. The format is cell-based, human. Particulars: 0.5 μM, 24 h. (A flow cytometer gives signals particle by particle.)
Assay [5] concerns UKE-1 cells. Description: Development of drug resistance in UKE-1 cells. To be noted: two months, starting at IC20. The format is cell-based, human.
For another assay, the system named is BRD4. Particulars: read-out: IC50(BRD4); cited from earlier work.
The test system of assay [6] is c-MYC, p-STAT3, c-PARP levels in MM1.S cells. Kind of assay: Immunoblotting of biomarkers in MM1.S. The format is cell-based, human. Particulars: 6 h drug exposure.
Assay [7] addresses T1, BRD4-1. Description: qPCR binding assay, BRD4-1. To be noted: read-out: BRD4-1 Kd, qPCR; single experiment in duplicate. (In qPCR the cycle at which signal appears reflects the starting amount.)
Another assay addresses BRDT-1 (Homo sapiens, UniProt Q58F21). Description: Alpha Screen binding assay, BRDT-1. To be noted: relative to BRD4.
The next assay deals with 931 cancer cell lines. Description: Cancer cell line screening. The class given is cell-based. Particulars: 72 h, read-out: mean IC50 across cell line panel.

Read-outs that look alike come from different tables or passages of the source.

As a reminder, the IC50 is the concentration at which inhibition is half-maximal. Consider `Cc1cnc(Nc2ccc(N3CCN(C)CC3)cc2)nc1Nc1cccc(S(=O)(=O)NC(C)(C)C)c1` [TG101209], for which the “ΔTm, DSF” value on BRD4-1 [1] was determined as 6.8 °C. For the same compound, the half-maximal inhibitory concentration (IC50) is 1400 nM in the assay with MM1.S cells [2] (Cell titer blue); 320 nM in the assay on UKE-1 cells [3] (72 h, Cell titer blue); 1500 nM with SAOS2 cells (72 h, Cell titer blue); 1900 nM in the assay on HCC-78 cells (72 h, Cell titer blue); […] with BRD4. Further, in the assay on MM1.S cells [4], the “cell cycle effect / G1 arrest” value is reported as “moderate increase of cells in G1”. Besides, in the assay with UKE-1 cells [5], the “development of resistance upon prolonged exposure” value was “readily developed resistance”.
`CC(C)(C)c1cc(NC(=O)Nc2ccc(-c3cn4c(n3)sc3cc(OCCN5CCOCC5)ccc34)cc2)no1` [Quizartinib]: the 50% inhibitory concentration (IC50) is over 10000 nM in the assay on MM1.S cells [2] (Homo sapiens, MM1.S); 9500 nM in the assay with UKE-1 cells [3] (Homo sapiens, UKE1, 72 h); over 10000 nM in the assay with SAOS2 cells (Homo sapiens, SAOS-2, 72 h); over 10000 nM in the assay with HCC-78 cells (Homo sapiens, HCC78, 72 h). In the assay with MM1.S cells [4], the “cell cycle effect / G1 arrest” value was “only slightly affected”.
For the compound `N#CC[C@H](C1CCCC1)n1cc(-c2ncnc3[nH]ccc23)cn1` [Ruxolitinib], the 50% inhibitory concentration (IC50) in the assay on MM1.S cells [2] (Homo sapiens, MM1.S) was over 10000 nM; in the assay on UKE-1 cells [3] (Homo sapiens, UKE1, 72 h), 170 nM; in the assay with SAOS2 cells (Homo sapiens, SAOS-2, 72 h), over 10000 nM; in the assay with HCC-78 cells (Homo sapiens, HCC78, 72 h), over 10000 nM. The “cell cycle effect / G1 arrest” value with MM1.S cells [4] was “only slightly affected”. Moreover, in assay [6], the “onset of apoptosis, c-PARP levels” value is recorded as “ineffective”. In addition, the “development of resistance upon prolonged exposure” value in the assay on UKE-1 cells [5] is on record as “readily developed resistance”.
One may read the Kd as a measure of binding affinity in units of concentration. With (+)-JQ1, the “ΔTm, DSF” value at BRD4-1 [1] amounted to 8.8 °C. Besides, the dissociation constant (Kd) at BRD4-1 [7] amounted to 9.1 nM. The half-inhibitory concentration (IC50) in the assay with MM1.S cells [2] (Cell titer blue) turned out to be 100 nM; in the assay with UKE-1 cells [3] (72 h, Cell titer blue), 210 nM; in the assay with SAOS2 cells (72 h, Cell titer blue), 1500 nM; with HCC-78 cells (72 h, Cell titer blue) it was 2600 nM. For the same compound, the “maximum fraction affected, SAOS-2” value in the assay on SAOS2 cells (72 h, Hill fit) is listed as ~ 0.5. The “maximum fraction affected, HCC-78” value with HCC-78 cells (72 h, Hill fit) was ~ 0.5. Moreover, on BRDT-1, the “fold less active against BRDT-1” value is 7 fold. Also, the “onset of apoptosis, c-PARP levels” value in [6] was “ineffective”.
Take `Cc1cnc(Nc2ccc(OCCN3CCCC3)cc2)nc1Nc1cccc(S(=O)(=O)NC(C)(C)C)c1` [TG101348]: the IC50 in the assay on 931 cancer cell lines is 10 µM.
